# Like-named read-outs stand apart in the source and are kept apart here.
# Key:
# HBV = assay: Anti-HBV activity in HepG2.2.15 cells (HBV DNA in culture medium by qPCR); type: cell-based; conditions: Hepatitis B virus, HepG2.2.15, 144 h
# Method: Example 2: Anti-Viral Assay in HepG2.2.15 Cells
# (§1) HepG2.2.15 (the HepG2.2.15 cell line can be produced by transfection of the HepG2 cell line as described in Sells, Chen, and Acs 1987 (Proc. Natl. Acad. Sci. USA 84: 1005-1009), and the HepG2 cell line is available from ATCC® under number HIB-8065™)
# (§2) HepG2.2.15 cells were plated into 96-well plate in 2% FBS culture medium at the density of 40,000 cells/well and 5,000 cells/well for HBV inhibitory activity and cytotoxicity determination, respectively. After incubation at 37° C., 5% CO2 overnight, cells were treated with medium containing compounds for 6 days with medium and compounds refreshed after 3 days of treatment. Each compound was tested in a 1:3 serial dilutions at 8 different concentrations in triplicate. The highest concentration of the compounds was 10 uM or 1 uM for anti-HBV activity assay and 100 uM for cytotoxicity determination.
# The change of HBV DNA level induced by the compounds was assessed by quantitative real-time polymerase chain reaction (qPCR). Briefly, the HBV DNA in the culture medium was extracted using QIAamp 96 DNA Blood Kit according to the manual and then quantified by real-time PCR assay using the primers and probe in the table 2 below.
# (§3) 2) DATA Analysis EC50 and CC50 values are calculated by the GRAPTIPAD PRISM software.
# [1] = Cytotoxicity determination in HepG2.2.15 cells (CCK-8 cell viability); type: cell-based; conditions: human, 6 days treatment, CCK-8 assay, highest concentration 100 uM
# Method: as §1, §2
# Cell viability was determined by CCK-8 assay. After 6 days of compounds treatment, 20 μl CCK-8 reagents were added to each well of cytotoxicity assay plates. Cell plates were incubated at 37° C., 5% CO2 for 2.5 h. The absorbance at 450 nm wavelength and the absorbance at 630 nm wavelength as reference was measured.
# as §3
# [2] = HepG2.2.15 cells, 6 days treatment, HBV DNA in culture medium quantified by real-time PCR, read-out: EC50
SMILES,EC50 (HBV; [2]) [nM],CC50 at 6 days [1] [nM],EC50 (HBV) [nM]
"CCOC(=O)C1=C(CN2CC(F)(F)[C@@H]3CN(C(=O)NS(C)(=O)=O)C[C@@H]32)NC(c2nccs2)=N[C@H]1c1cccc(F)c1C (single isomer, unassigned) [Compound 31]",106,85800,–
"CCOC(=O)C1=C(CN2CC(F)(F)[C@@H]3CN(S(=O)(=O)NC(C)=O)C[C@@H]32)NC(c2nccs2)=N[C@H]1c1cccc(F)c1C (single isomer, unassigned) [Compound 32]",3.4,31800,–
"CCOC(=O)C1=C(CN2CC(F)(F)[C@@H]3CN(S(N)(=O)=O)C[C@@H]32)NC(c2nccs2)=N[C@H]1c1cccc(F)c1C (single isomer, unassigned) [Compound 33]",2.4,14600,–
"CCOC(=O)C1=C(CN2CC(F)(F)[C@H]3[C@@H]2CCN3S(N)(=O)=O)NC(c2nccs2)=N[C@H]1c1cccc(F)c1C (single isomer, unassigned) [Compound 34]",12,14300,–
"CCOC(=O)C1=C(CN2CC(F)(F)[C@@H]3CN(C(N)=O)C[C@@H]32)NC(c2nccs2)=N[C@H]1c1cccc(F)c1C (single isomer, unassigned) [Compound 35]",13.3,35200,–
"CCOC(=O)C1=C(CN2CC(F)(F)[C@H]3[C@@H]2CCN3C(N)=O)NC(c2nccs2)=N[C@H]1c1cccc(F)c1C (single isomer, unassigned) [Compound 36]",30.1,26000,–
"COC(=O)C1=C(CN2CC(F)(F)[C@@H]3C(=O)N(CC(C)(C)C(=O)O)C[C@@H]32)NC(c2ncoc2C)=N[C@H]1c1ccc(F)cc1Cl (single isomer, unassigned) [Compound 41, 3-((cis)-1-((6-(2-chloro-4-fluorophenyl)-5-(methoxycarbonyl)-2-(5-methyloxazol-4-yl)-3,6-dihydropyrimidin-4-yl)methyl)-3,3-difluoro-4-oxohexahydropyrrolo[3,4-b]pyrrol-5(1H)-yl)-2,2-dimethylpropanoic acid]",93.8,> 100000,–
"COC(=O)C1=C(CN2CC(F)(F)[C@@H]3C(=O)N(CC(C)(C)C(=O)O)C[C@@H]32)NC(c2nccs2)=N[C@H]1c1ccc(F)c(F)c1Cl (single isomer, unassigned) [Compound 42, 3-((cis)-1-((6-(2-Chloro-3,4-difluorophenyl)-5-(methoxycarbonyl)-2-(thiazol-2-yl)-3,6-dihydropyrimidin-4-yl)methyl)-3,3-difluoro-4-oxohexahydropyrrolo[3,4-b]pyrrol-5(1H)-yl)-2,2-dimethylpropanoic acid]",13.8,> 100000,–
"CCOC(=O)C1=C(CN2CC(F)(F)[C@@H]3C(=O)N(CC(C)(C)C(=O)O)C[C@@H]32)NC(c2nccs2)=N[C@H]1c1cccc(F)c1Cl (single isomer, unassigned) [Compound 43, 3-((cis)-1-((6-(2-chloro-3-fluorophenyl)-5-(ethoxycarbonyl)-2-(thiazol-2-yl)-3,6-dihydropyrimidin-4-yl)methyl)-3,3-difluoro-4-oxohexahydropyrrolo[3,4-b]pyrrol-5(1H)-yl)-2,2-dimethylpropanoic acid]",4.1,50200,–
"CCOC(=O)C1=C(CN2CC(F)(F)[C@@H]3C(=O)N([C@H]4CC[C@@H](C(=O)O)CC4)C[C@@H]32)NC(c2nccs2)=N[C@H]1c1cccc(F)c1C (single isomer, unassigned) [Compound 44A]",56.7,> 100000,–
"CCOC(=O)C1=C(CN2CC(F)(F)[C@@H]3CN(S(=O)(=O)CC(C)(C)C(=O)O)C[C@@H]32)NC(c2nccs2)=N[C@H]1c1cccc(F)c1C (single isomer, unassigned) [Compound 46]",39.4,20900,–
"CCOC(=O)C1=C(CN2CC(F)(F)[C@@H]3CN(CC4(CC(=O)O)CC4)C[C@@H]32)NC(c2nccs2)=N[C@H]1c1cccc(F)c1C (single isomer, unassigned) [Compound 48]",105,> 100000,–
"CCOC(=O)C1=C(CN2CC[C@@]3(F)C(=O)N(CCC(C)(C)C(=O)O)C[C@@H]23)NC(c2nccs2)=N[C@H]1c1cccc(F)c1C (single isomer, unassigned) [Compound 50A]",40.8,49300,–
"CCOC(=O)C1=C(CN2CC(F)(F)[C@@H]3CN(c4ncc(C(=O)O)cn4)C[C@@H]32)NC(c2nccs2)=N[C@H]1c1cccc(F)c1C (single isomer, unassigned) [Compound 54]",49.2,55200,–
"CCOC(=O)C1=C(CN2CC(F)(F)[C@@H]3CN(C(=O)[C@H]4C[C@@H](C(=O)O)C4)C[C@@H]32)NC(c2nccs2)=N[C@H]1c1cccc(F)c1C (single isomer, unassigned) [Compound 56B]",79.2,> 100000,–
"CCOC(=O)C1=C(CN2CC(F)(F)[C@@H]3CN(C(=O)[C@@H]4C[C@@H]4C(=O)O)C[C@@H]32)NC(c2nccs2)=N[C@H]1c1cccc(F)c1C (single isomer, unassigned) [Compound 57B]",92.2,51200,–
"CCOC(=O)C1=C(CN2CC(F)(F)[C@@H]3CN(C(=O)OC(C)(C)C(=O)O)C[C@@H]32)NC(c2nccs2)=N[C@H]1c1cccc(F)c1C (single isomer, unassigned) [Compound 60]",49.6,29400,–
"CCOC(=O)C1=C(CN2CC(F)(F)[C@H]3[C@@H]2CCN3C(C)=O)NC(c2nccs2)=N[C@H]1c1cccc(F)c1C (single isomer, unassigned) [Compound 61]",37.3,21500,–
"CCOC(=O)C1=C(CN2CC(F)(F)[C@H]3[C@@H]2CCN3S(C)(=O)=O)NC(c2nccs2)=N[C@H]1c1cccc(F)c1C (single isomer, unassigned) [Compound 62]",12.7,17300,–
"CCOC(=O)C1=C(CN2CC(F)(F)[C@H]3[C@@H]2CCN3C(=O)NC(N)=O)NC(c2nccs2)=N[C@H]1c1cccc(F)c1C (single isomer, unassigned) [Compound 63]",11.8,25200,–
"CCOC(=O)C1=C(CN2CC(F)(F)[C@@H]3[C@H]2CN(C(=O)[C@H]2CC2(F)F)N3CCC(C)(C)C(=O)O)NC(c2nccs2)=N[C@H]1c1cccc(F)c1C (single isomer, unassigned) [Compound 72A]",55,14500,–
"CCOC(=O)C1=C(CN2CC(F)(F)[C@@H]3[C@H]2CN(C(=O)C2CC2)N3CCC(C)(C)C(=O)O)NC(c2nccs2)=N[C@H]1c1cccc(F)c1C (single isomer, unassigned) [Compound 73]",17,26000,–
"CCOC(=O)C1=C(CN2CC(F)(F)[C@@H]3[C@H]2CN(C(=O)C(C)C)N3CCC(C)(C)C(=O)O)NC(c2nccs2)=N[C@H]1c1cccc(F)c1C (single isomer, unassigned) [Compound 74]",38,16600,–
"CCOC(=O)C1=C(CN2CC(F)(F)[C@@H]3[C@H]2CN(C(=O)C(F)F)N3CCC(C)(C)C(=O)O)NC(c2nccs2)=N[C@H]1c1cccc(F)c1C (single isomer, unassigned) [Compound 75]",–,22600,40
"CCOC(=O)C1=C(CN2CC(F)(F)[C@@H]3[C@H]2CN(C(N)=O)N3CCC(C)(C)C(=O)O)NC(c2nccs2)=N[C@H]1c1cccc(F)c1C (single isomer, unassigned) [Compound 76A]",11,28200,–
"CCOC(=O)C1=C(CN2CC(F)(F)[C@H]3[C@@H]2CN(C(C)=O)N3CCC(C)(C)C(=O)O)NC(c2nccs2)=N[C@H]1c1ccc(F)c(F)c1Cl (single isomer, unassigned) [Compound 77B, 4-((cis)-2-acetyl-4-((6-(2-chloro-3,4-difluorophenyl)-5-(ethoxycarbonyl)-2-(thiazol-2-yl)-3,6-dihydropyrimidin-4-yl)methyl)-6,6-difluorohexahydropyrrolo[3,2-c]pyrazol-1(2H)-yl)-2,2-dimethylbutanoic acid]",15,17500,–
"COC(=O)C1=C(CN2CC(F)(F)[C@@H]3[C@H]2CN(C(C)=O)N3CCC(C)(C)C(=O)O)NC(c2nccs2)=N[C@H]1c1ccc(F)c(F)c1Cl (single isomer, unassigned) [Compound 79A, 4-((cis)-2-acetyl-4-((6-(2-chloro-3,4-difluorophenyl)-5-(methoxycarbonyl)-2-(thiazol-2-yl)-3,6-dihydropyrimidin-4-yl)methyl)-6,6-difluorohexahydropyrrolo[3,2-c]pyrazol-1(2H)-yl)-2,2-dimethylbutanoic acid]",40,> 50000,–

# Source: patent US20230083012A1, “DIHYDROPYRIMIDINE DERIVATIVES AND USES THEREOF IN THE TREATMENT OF HBV INFECTION OR OF HBV-INDUCED DISEASES” (priority 2019, published 2023)
